Laboratory results as given in patent US10723777B2, “Peptide having anti-obesity and anti-diabetes efficacy and use thereof” (CAREGEN CO., LTD., priority 2016, dated 2020).

Assays:
[1] = tested on: pre-adipocytes 3T3-L1 cells; assay: Inhibition of fat accumulation using pre-adipocyte (Oil Red O staining); type: cell-based, mouse; conditions: 3T3-L1, differentiation induced 10 days, various concentrations
Experimental: The pre-adipocytes 3T3-L1 cells were incubated until becoming confluent, and then incubated for two days after treatment with various concentrations of the peptides in a differentiation medium containing 10 μg/ml insulin, 0.1 μM dexamethasone, and 0.5 μM IBMX. Thereafter, the medium was exchanged every two days to a medium containing 10 μg/ml insulin. After differentiation was induced for 10 days, the generation of droplet in the cells was confirmed by Oil Red 0 staining.
The prepared 3T3-L1 pre-adipocytes were washed with PBS, fixed with 3.7% formalin for 1 hour, were washed with 60% isopropanol, and then were dyed with Oil Red O solution at room temperature for 20 minutes. After completion of dyeing, the Oil Red O solution was removed, the cells were washed three times with distilled water, and then the dyed cells were observed under a phase contrast microscope. For quantitative analysis, fats were extracted from the cells using 100% isopropanol, and the cells were transferred in an amount of 200 μl/well into 96-well plates and measured for optical density at 500 nm using an ELISA reader.

[2] = tested on: adipogenic markers (PPARγ, ACC, and aP2) in 3T3-L1 cells; assay: Suppression of expression of genes involved in adipogenesis (RT-PCR); type: cell-based, mouse; conditions: TNFα 100 ng/ml; for expression levels of the adipogenic marker aP2 (gene): peptides/peptide complexes 0.1, 1, 10 μg/ml
Experimental: 3T3-L1 cells (pre-adipocytes) were seeded at a density of 3×10^5 cells/well into 6-well plates. After incubating for 24 hours, the cells were incubated for 14 days in a 37° C. incubator after treatment with various concentrations (0.1, 1, and 10 μg/ml) of the peptides. Thereafter, the cells were harvested and treated with an RNA extraction solution (Easy Blue, Intron) to prepare for RNA from which cDNA was then synthesized using an RT premix (Intron). PCR was performed using primers for the adipogenic markers (PPARγ, ACC, and aP2), and a PCR premix (Intron). Next, the PCR products were each loaded in an amount of 5 μl into a 1% agarose gel and electrophoresis was performed, and then bands were identified in a Gel-Doc.
Target-specific primer sequences for PCR of adipogenic markers are as follows: […]

[3] = tested on: DB/DB diabetes-induced mice; assay: Blood sugar levels over time in DB/DB diabetes-induced mice administered with the peptides; type: in vivo, mouse; conditions: for blood sugar levels: High-Fat Diabetes DB/DB mice; for blood sugar levels (course over time): DB/DB mice
Experimental: In addition, after starvation for 16 hours, DB/DB diabetes-induced mice were fed for 30 minutes and then administered with the peptides. Blood sugar levels were measured over times and the results are shown in FIGS. 22 and 23 and Tables 7 and 8.

[4] = tested on: DIO C57BL/6 mouse fed high-fat diet; assay: Adipogenesis-suppressive and lipolysis-promotive effect in DIO (diets induced obesity) mice; type: in vivo
Experimental: Obesity-induced Models DIO (diets induced obesity), which had become obese by feeding high-fat diets to normal C57BL/6 mouse, were used for the anti-obesity experiment in which 5 μg/ml of TNFα was used as a positive control drug. For a control, a general diet, not a high-fat diet, was fed. In this experiment, a high-fat diet was fed for 12 weeks, while the peptide complexes or the positive control drug were applied. During the experiment, the weight loss was confirmed.
TNFα and the anti-obesity active compounds were intraperitoneally injected at 3:00 to 4:00 pm every week for 12 weeks. Body weights and dietary amounts were measured just before the first drug injection, and then measured at weekly intervals.
Blood samples were collected from the tail vein after the end of the drug injection experiment, and then blood sugar levels were measured using Accu-Check Active (Roche) and cholesterol levels were analyzed using Cholesterol calculation Kit (BioVision).
Adipose tissues are classified into white fat and brown fat depending on the color and are classified into subcutaneous fat, abdominal fat, mesentery fat (visceral fat), and epididymal fat depending on the site. After dissection, each fat was extracted. For histological examination, the fats were fixed with 10% neutral buffered formalin, embedded in paraffin blocks, cut into […] sections, and dyed with hematoxylin and eosin.
To analyze the degree of phosphorylation of the lipolytic factor HSL, fluorescent staining was carried out using an anti-pHSL antibody. The tissue samples were prepared, mounted on glycerine jell mounting media, and covered with a cover glass. The tissues were taken with a digital camera built into a microscope (Nikon, TS100) and images were observed under the microscope.

[5] = tested on: DIO C57BL/6 mouse fed high-fat diet; assay: as above; type: in vivo; conditions: micro-CT; HDF (10 weeks) + treatment (8 weeks)
[6] = peptide complexes 0.1, 1, 10 μg/ml

Question: ACYLPHPWFC (Peptide 4) [SEQ ID NO: 4] was tested. Which “degree of fat accumulation in the cells (Oil Red O staining)” value [1] did it give?
Answer: Its value is “decreased”.

Question: And the “expression levels of the adipogenic marker aP2 (gene)” value [2]?
Answer: Its value is “decreased”.

Question: What about the blood sugar levels ([3]; 30 minutes) of the same substance?
Answer: The blood sugar levels was 249 mg/dL.

Question: What about the blood sugar levels ([3]; 60 minutes) of the same substance?
Answer: The blood sugar levels was 229 mg/dL.

Question: And the blood sugar levels ([3]; 120 minutes)?
Answer: The blood sugar levels was 215 mg/dL.

Question: What about the blood sugar levels ([3]; 240 minutes) of the same substance?
Answer: The blood sugar levels was 180 mg/dL.

Question: And the blood sugar levels ([3]; 300 minutes)?
Answer: The blood sugar levels was 165 mg/dL.

Question: And the “blood sugar levels (course over time)” value [3]?
Answer: The value was “lowered in a time-dependent manner”.

Question: And the blood sugar levels ([3]; Fasting)?
Answer: Its blood sugar levels is 222 mg/dL.

Question: With KGACTGWMA (Peptide 2) [SEQ ID NO: 2] as the substance, how does the “degree of fat accumulation in the cells (Oil Red O staining)” value [1] read?
Answer: The value was “decreased”.

Question: What about the “expression levels of the adipogenic marker aP2 (gene)” value [2] of the same substance?
Answer: The value was “decreased”.

Question: What about the blood sugar levels ([3]; 30 minutes) of the same substance?
Answer: The blood sugar levels was 219 mg/dL.

Question: And the blood sugar levels ([3]; 60 minutes)?
Answer: The blood sugar levels was 231 mg/dL.

Question: And the blood sugar levels ([3]; 120 minutes)?
Answer: The blood sugar levels was 174 mg/dL.

Question: And the blood sugar levels ([3]; 240 minutes)?
Answer: The blood sugar levels was 158 mg/dL.

Question: What about the blood sugar levels ([3]; 300 minutes) of the same substance?
Answer: The blood sugar levels was 152 mg/dL.

Question: And the “blood sugar levels (course over time)” value [3]?
Answer: The value was “lowered in a time-dependent manner”.

Question: And the blood sugar levels ([3]; Fasting)?
Answer: The blood sugar levels was 181 mg/dL.

Question: Which body weight ([4]; Week 0, high-fat diet) does the source give for TNFα here?
Answer: Its body weight is 22.41 g.

Question: And the “body weight in percentage” value ([4]; Week 0, high-fat diet)?
Answer: Its value is 100%.

Question: What about the body weight ([4]; Week 1, high-fat diet) of the same substance?
Answer: The body weight was 23.00 g.

Question: What about the “body weight in percentage” value ([4]; Week 1, high-fat diet) of the same substance?
Answer: The value was 102.6%.

Question: And the body weight ([4]; Week 2, high-fat diet)?
Answer: The body weight was 26.12 g.

Question: And the “body weight in percentage” value ([4]; Week 2, high-fat diet)?
Answer: The value was 116.6%.

Question: And the body weight ([4]; Week 3, high-fat diet)?
Answer: Its body weight is 27.45 g.

Question: What about the “body weight in percentage” value ([4]; Week 3, high-fat diet) of the same substance?
Answer: Its value is 122.5%.

Question: And the body weight ([4]; Week 4, high-fat diet)?
Answer: Its body weight is 30.51 g.

Question: What about the “body weight in percentage” value ([4]; Week 4, high-fat diet) of the same substance?
Answer: Its value is 136.1%.

Question: And the body weight ([4]; Week 5, high-fat diet)?
Answer: The body weight was 32.76 g.

Question: What about the “body weight in percentage” value ([4]; Week 5, high-fat diet) of the same substance?
Answer: Its value is 146.2%.

Question: What about the body weight ([4]; Week 6, high-fat diet) of the same substance?
Answer: The body weight was 33.49 g.

Question: What about the “body weight in percentage” value ([4]; Week 6, high-fat diet) of the same substance?
Answer: Its value is 149.4%.

Question: And the body weight ([4]; Week 7, high-fat diet)?
Answer: Its body weight is 35.14 g.

Question: What about the “body weight in percentage” value ([4]; Week 7, high-fat diet) of the same substance?
Answer: The value was 156.8%.

Question: What about the body weight ([4]; Week 8, high-fat diet) of the same substance?
Answer: Its body weight is 37.15 g.

Question: And the “body weight in percentage” value ([4]; Week 8, high-fat diet)?
Answer: Its value is 165.8%.

Question: What about the body weight ([4]; Week 9, high-fat diet) of the same substance?
Answer: Its body weight is 38.97 g.

Question: What about the “body weight in percentage” value ([4]; Week 9, high-fat diet) of the same substance?
Answer: Its value is 173.9%.

Question: What about the body weight ([4]; Week 10, high-fat diet) of the same substance?
Answer: The body weight was 40.39 g.

Question: What about the “body weight in percentage” value ([4]; Week 10, high-fat diet) of the same substance?
Answer: Its value is 180.2%.

Question: And the body weight ([4]; Week 11, high-fat diet)?
Answer: The body weight was 41.35 g.

Question: What about the “body weight in percentage” value ([4]; Week 11, high-fat diet) of the same substance?
Answer: Its value is 184.5%.

Question: And the body weight ([4]; Week 12, high-fat diet)?
Answer: The body weight was 43.91 g.

Question: And the “body weight in percentage” value ([4]; Week 12, high-fat diet)?
Answer: Its value is 195.9%.

Question: And the “Subcutaneous Fat” value ([4]; micro-CT, HDF (10 weeks) + treatment (8 weeks))?
Answer: The value was 1332.08 mm^3.

Question: And the “expression levels of the adipogenic marker ACC (gene)” value [2, 6]?
Answer: Its value is “decreased”.

Question: And the “expression levels of the adipogenic marker PPARγ (gene)” value [2, 6]?
Answer: The value was “decreased”.

Question: And the “expression levels of the adipogenic marker aP2 (gene)” value [2]?
Answer: The value was “decreased”.

Question: What about the “Total Fat” value [5] of the same substance?
Answer: The value was 4165.80 mm^3.

Question: And the “Total Volume” value [5]?
Answer: The value was 8240.67 mm^3.

Question: And the “Visceral Fat” value [5]?
Answer: Its value is 2833.72 mm^3.
